Source: the supplement of paper PMC10307832

How the values were obtained:
Assay in all cases: relative viability (nuclei count vs DMSO), 5 days (fraction); higher = more cells survive
NCI-H1666 = system: NCI-H1666
Summary of the method: (§1)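 One day after seeding in 1536-well plates, lung cancer cell lines were dosed by pin tool. Dosing was either single-drug or a fixed anchor-drug dose plus five library-drug doses (not always all listed) in √10 steps. After 5 days, nuclei were stained in one fix-and-stain step and counted on 4× images, and relative viability is the nuclei count of treated wells over that of vehicle wells, given as the median of duplicate plates.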

LU99A = system: LU99A
Summary of the method: as §1

UMC-11 = system: UMC-11
Summary of the method: as §1

NCI-H1355 = system: NCI-H1355
Summary of the method: as §1

NCI-H1792 = system: NCI-H1792
Summary of the method: as §1

BEN = system: BEN
Summary of the method: as §1

NCI-H23 = system: NCI-H23
Summary of the method: as §1

NCI-H358 = system: NCI-H358
Summary of the method: as §1

NCI-H727 = system: NCI-H727
Summary of the method: as §1

NCI-H647 = system: NCI-H647
Summary of the method: as §1

NCI-H1975 = system: NCI-H1975
Summary of the method: as §1

NCI-H2405 = system: NCI-H2405
Summary of the method: as §1

**Q.** Which relative viability (NCI-H1666; first compound 0.08 µM) does the source give for O=c1[nH]c2ccccc2n1C1CCN(CCCC(c2ccc(F)cc2)c2ccc(F)cc2)CC1 [Pimozide] + O=C(c1cc(Cc2n[nH]c(=O)c3ccccc23)ccc1F)N1CCN(C(=O)C2CC2)CC1 [Olaparib] (partner 8 µM) here?
**A.** 0.708

**Q.** And the relative viability (NCI-H1666; first compound 0.253 µM)?
**A.** 0.737

**Q.** And the relative viability (NCI-H1666; first compound 0.8 µM)?
**A.** 0.787

**Q.** What about the relative viability (NCI-H1666; first compound 2.53 µM) of the same molecule?
**A.** 0.756

**Q.** What about the relative viability (NCI-H1666; first compound 8 µM) of the same molecule?
**A.** 0.754

**Q.** And the relative viability (LU99A; first compound 0.08 µM)?
**A.** 0.251

**Q.** And the relative viability (LU99A; first compound 0.8 µM)?
**A.** 0.26

**Q.** And the relative viability (LU99A; first compound 2.53 µM)?
**A.** 0.297

**Q.** What about the relative viability (LU99A; first compound 8 µM) of the same molecule?
**A.** 0.254

**Q.** What about the relative viability (UMC-11; first compound 0.08 µM) of the same molecule?
**A.** 0.394

**Q.** What about the relative viability (UMC-11; first compound 0.253 µM) of the same molecule?
**A.** 0.356

**Q.** What about the relative viability (UMC-11; first compound 0.8 µM) of the same molecule?
**A.** 0.417

**Q.** And the relative viability (UMC-11; first compound 2.53 µM)?
**A.** 0.371

**Q.** What about the relative viability (UMC-11; first compound 8 µM) of the same molecule?
**A.** 0.466

**Q.** What about the relative viability (NCI-H1355; first compound 0.08 µM) of the same molecule?
**A.** 0.717

**Q.** What about the relative viability (NCI-H1355; first compound 0.253 µM) of the same molecule?
**A.** 0.677

**Q.** And the relative viability (NCI-H1355; first compound 0.8 µM)?
**A.** 0.675

**Q.** And the relative viability (NCI-H1355; first compound 2.53 µM)?
**A.** 0.758

**Q.** What about the relative viability (NCI-H1355; first compound 8 µM) of the same molecule?
**A.** 0.689

**Q.** And the relative viability (NCI-H1792; first compound 0.08 µM)?
**A.** 0.298

**Q.** And the relative viability (NCI-H1792; first compound 0.253 µM)?
**A.** 0.452

**Q.** And the relative viability (NCI-H1792; first compound 0.8 µM)?
**A.** 0.452

**Q.** And the relative viability (NCI-H1792; first compound 2.53 µM)?
**A.** 0.406

**Q.** And the relative viability (NCI-H1792; first compound 8 µM)?
**A.** 0.375

**Q.** What about the relative viability (BEN; first compound 0.08 µM) of the same molecule?
**A.** 1.15

**Q.** And the relative viability (BEN; first compound 0.253 µM)?
**A.** 1.15

**Q.** What about the relative viability (BEN; first compound 0.8 µM) of the same molecule?
**A.** 1.1

**Q.** And the relative viability (BEN; first compound 2.53 µM)?
**A.** 1.07

**Q.** And the relative viability (BEN; first compound 8 µM)?
**A.** 1.29

**Q.** What about the relative viability (NCI-H23; first compound 0.08 µM) of the same molecule?
**A.** 0.293

**Q.** What about the relative viability (NCI-H23; first compound 0.253 µM) of the same molecule?
**A.** 0.326

**Q.** What about the relative viability (NCI-H23; first compound 0.8 µM) of the same molecule?
**A.** 0.325

**Q.** And the relative viability (NCI-H23; first compound 2.53 µM)?
**A.** 0.285

**Q.** What about the relative viability (NCI-H23; first compound 8 µM) of the same molecule?
**A.** 0.275

**Q.** And the relative viability (NCI-H358; first compound 0.08 µM)?
**A.** 0.596

**Q.** And the relative viability (NCI-H358; first compound 0.253 µM)?
**A.** 0.583

**Q.** And the relative viability (NCI-H358; first compound 0.8 µM)?
**A.** 0.561

**Q.** What about the relative viability (NCI-H358; first compound 2.53 µM) of the same molecule?
**A.** 0.508

**Q.** And the relative viability (NCI-H358; first compound 8 µM)?
**A.** 0.595

**Q.** What about the relative viability (NCI-H727; first compound 0.08 µM) of the same molecule?
**A.** 0.731

**Q.** And the relative viability (NCI-H727; first compound 0.253 µM)?
**A.** 0.674

**Q.** And the relative viability (NCI-H727; first compound 0.8 µM)?
**A.** 0.725

**Q.** And the relative viability (NCI-H727; first compound 2.53 µM)?
**A.** 0.549

**Q.** And the relative viability (NCI-H727; first compound 8 µM)?
**A.** 0.739

**Q.** And the relative viability (NCI-H647; first compound 0.08 µM)?
**A.** 0.562

**Q.** And the relative viability (NCI-H647; first compound 0.253 µM)?
**A.** 0.503

**Q.** And the relative viability (NCI-H647; first compound 0.8 µM)?
**A.** 0.391

**Q.** What about the relative viability (NCI-H647; first compound 2.53 µM) of the same molecule?
**A.** 0.495

**Q.** And the relative viability (NCI-H647; first compound 8 µM)?
**A.** 0.28

**Q.** What about the relative viability (NCI-H1975; first compound 0.08 µM) of the same molecule?
**A.** 0.934

**Q.** What about the relative viability (NCI-H1975; first compound 0.253 µM) of the same molecule?
**A.** 0.782

**Q.** And the relative viability (NCI-H1975; first compound 0.8 µM)?
**A.** 0.858

**Q.** What about the relative viability (NCI-H1975; first compound 2.53 µM) of the same molecule?
**A.** 0.75

**Q.** And the relative viability (NCI-H1975; first compound 8 µM)?
**A.** 0.625

**Q.** What about the relative viability (NCI-H2405; first compound 0.08 µM) of the same molecule?
**A.** 0.833

**Q.** And the relative viability (NCI-H2405; first compound 0.253 µM)?
**A.** 0.826
